{"source": "patent US11191754B2", "about": "“Inhibitors of nucleotidyl transferases and uses in herpes and hepatitis viral infections therefor” (Saint Louis University, priority 2015, dated 2021)", "key": {"[1]": {"system": "HSV-1", "experiment": "Anti-HSV-1 replication assay (virus yield by plaque assay on Vero cells)", "type": "cell-based, herpes simplex virus 1 (HSV-1)", "conditions": "for HSV-1 inhibition category: semi-quantitative replication inhibition assay", "procedure": "(§1) Vero cells were maintained in Dulbecco's modified Eagle's medium (DMEM) containing 3% newborn calf serum, 3% bovine growth serum, 2 mM L-glutamine and 100 IU/mL penicillin and 0.1 mg/mL streptomycin (P/S). HSV-1 #6 and HSV-2 #1 are de-identified clinical isolates from the Saint Louis University Hospital. Stocks were prepared after a single passage in cell culture and were titered by standard plaque assay (Knipe and Spang, 1982). Wild-type HSV-2 used in FIG. 3 was laboratory strain 333. […] Virus stocks were grown and titered on Vero cells (Morrison and Knipe, 1996).\n(§2) Compounds to be screened were diluted in PBS supplemented to contain 2% newborn calf serum and 1% glutamine, and added in 100 μL volume to confluent cell monolayers in 24-well cluster plates. Immediately thereafter HSV-1 and HSV-2, diluted in the supplemented PBS medium, were added to the wells in 50 μl volume such that the final concentration of compound was 50 μM, 5 μM and 1 μM and the multiplicity of infection was 0.1. The plates were incubated at 37° C. for 1 hour and then virus-containing inoculum was removed and the wells were washed once in PBS. Compound, diluted to 50 μM, 5 μM and 1 μM in DMEM supplemented to contain 2% newborn calf serum and 1% each penicillin/streptomycin, was added at 0.5 mL/well. Plates were incubated at 37° C. an additional 23 hours, and then the plates were visually inspected through a phase contrast microscope for cytopathic effect, and for toxic effect. The entire contents of each well were collected by scraping. Samples were frozen at −80° C., and then subsequently thawed, sonicated, and infectious virus titer was determined by standard plaque assay on Vero cell monolayers. Because the compounds were dissolved at 10 mM in 100% DMSO, equivalent dilutions of DMSO were added to additional wells as a control for effects of the diluent. Each experiment was repeated once. EC50 values were determined as above except that serial dilutions of the compound to be tested were prepared starting at 50 μM. The inhibitory values were calculated by non-linear curve-fitting in GraphPad Prism."}, "[2]": {"experiment": "Mouse liver microsome assay", "type": "in vitro ADME", "conditions": "for CLint scaled at 1 μM: mouse, liver microsomes", "procedure": "Microsomal incubations are run at a final P450 concentration of 0.25 μM. […] The mixture is prewarmed for 5 min at 37° C. To initiate the reaction a 12 mM stock of NAPDH (1.2 mM, final concentration) is added to the warmed microsomal mixture and aliquots are removed at 0, 5, 10, 20 and 30 min. […] Samples are vortexed and spun down at 3200 rpm for 5 min. The supernant is transferred to 96-deep well plates and run on LC/MS/MS."}, "[3]": {"system": "TK-deficient mutant of HSV-2 strain 333, ΔTK-", "experiment": "Replication of TK-deficient HSV-2 mutant in Vero cells", "type": "cell-based, herpes simplex virus 2 (HSV-2)", "conditions": "5 μM, 24 h (FIG. 3)", "procedure": "Vero cells were maintained in Dulbecco's modified Eagle's medium (DMEM) containing 3% newborn calf serum, 3% bovine growth serum, 2 mM L-glutamine and 100 IU/mL penicillin and 0.1 mg/mL streptomycin (P/S). HSV-1 #6 and HSV-2 #1 are de-identified clinical isolates from the Saint Louis University Hospital. Stocks were prepared after a single passage in cell culture and were titered by standard plaque assay (Knipe and Spang, 1982). Wild-type HSV-2 used in FIG. 3 was laboratory strain 333. The TK-deficient mutant of HSV-2 strain 333, ΔTK-, contains a 180-bp KpnI-KpnI deletion in the UL23 open reading frame that abrogates TK activity (McDermott, et al, 1984). ΔTK—was the generous gift of Jim Smiley. Virus stocks were grown and titered on Vero cells (Morrison and Knipe, 1996).\nACV is a nucleoside analog prodrug that must be phosphorylated by the viral thymidine kinase (TK) for it to become a substrate for the viral DNA polymerase (Elion, et al., 1977). HSV TK-deficient mutants are therefore insensitive to ACV. […] Vero cells were infected with a laboratory strain of HSV-2 and an engineered TK-deficient mutant of the same strain. […] ACV 5 μM inhibited wild-type HSV-2 replication 100-fold, but it had little effect on the TK-mutant (FIG. 3)."}, "[4]": {"system": "HSV-2", "experiment": "Anti-HSV-2 replication assay (virus yield by plaque assay on Vero cells)", "type": "cell-based, herpes simplex virus 2 (HSV-2)", "conditions": "for HSV-2 inhibition category: semi-quantitative replication inhibition assay", "procedure": "as §1, §2"}, "[5]": {"target": "T1, human RNaseH1 (Homo sapiens, UniProt O60930)", "T1 construct": "made in house; host or cells: E. coli", "T1 sequence (O60930 1-286)": "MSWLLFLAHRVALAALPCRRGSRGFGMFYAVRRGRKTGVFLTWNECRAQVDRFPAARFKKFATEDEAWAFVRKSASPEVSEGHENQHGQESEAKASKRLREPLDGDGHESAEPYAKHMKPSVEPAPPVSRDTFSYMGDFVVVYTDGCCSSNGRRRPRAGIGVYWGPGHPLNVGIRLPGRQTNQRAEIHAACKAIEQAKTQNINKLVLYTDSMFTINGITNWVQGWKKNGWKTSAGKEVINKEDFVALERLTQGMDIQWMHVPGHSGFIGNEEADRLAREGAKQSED", "experiment": "Human RNaseH1 oligonucleotide-directed RNA cleavage assay", "type": "biochemical", "conditions": "recombinant human RNaseH1", "procedure": "Recombinant HBV RNaseH and human RNaseH1 were expressed in E. coli and partially purified by nickel-affinity chromatography as previously described in Tavis, et al. (2013). The enriched extracts were dialyzed into 50 mM HEPES pH 7.3, 300 mM NaCl, 20% glycerol, and 5 mM DTT and stored in liquid nitrogen.\nRNaseH activity was measured using an oligonucleotide-directed RNA cleavage assay as previously described in Hu, et al., Tavis, et al., and Cai, et al. (2013; 2013; and 2014, respectfully). Briefly, 6 μL protein extract was mixed on ice with an internally ^32P-labeled 264 nt RNA derived from the Duck Hepatitis B Virus genome (DRF+ RNA) plus 3 μg oligonucleotide D2507- or its inverse-complement oligonucleotide D2526+ as a negative control. This mixture was incubated with test compounds in 50 mM Tris pH 8.0, 190 mM NaCl, 5 mM MgCl2, 3.5 mM DTT, 0.05% NP40, 6% glycerol, and 1% DMSO at 42° C. for 90 minutes. Cleavage products were resolved by denaturing polyacrylamide gel electrophoresis, detected by autoradiography, and quantified using ImageJ. Non-specific background values were determined from the incorrect oligonucleotide negative control lane and subtracted from all experimental values. IC50 values were then calculated with GraphPad Prism using three-parameter log(inhibitor) vs. response non-linear curve fitting with the curve minimum set to zero to reflect background subtraction."}, "[6]": {"conditions": "1 μM, Vero cells, moi 0.1, 24 h, relative to DMSO control"}, "[7]": {"conditions": "5 μM, Vero cells, moi 0.1, 24 h, relative to DMSO control"}, "[8]": {"conditions": "50 μM, Vero cells, moi 0.1, 24 h, relative to DMSO control"}}, "note": "Where “and” joins values, the source holds several entries; their conditions need not be identical. Equal entries are not always repeated. Where two headings read alike, the source gives them in different places."}
{"molecule": "Cc1cc(CC(C)CC(C)(C)C)n(O)c(=O)c1", "note": "(centres unmarked) [#191, Piroctone olamine]", "values": [{"measurement": "HSV-1 inhibition category", "setting": "[1]; 1 μM", "value": "intermediate (1 to 3 log10 suppression, which equals 10- to 1,000-fold reduction)"}, {"measurement": "HSV-1 Log10 suppression 1 μM", "setting": "[1]; [6]", "value": 2.71, "unit": "log10"}, {"measurement": "HSV-1 replication inhibition, fold", "setting": "[1]; 5 μM", "value": "4,074 fold"}, {"measurement": "HSV-1 inhibition category", "setting": "[1]; 5 μM", "value": "strong (3 to 6 log10 suppression, or 1,000- to 1,000,000-fold reduction)"}, {"measurement": "HSV-1 Log10 suppression 5 μM", "setting": "[1]; [7]", "value": "3.61 log10 and 3.53 log10"}, {"measurement": "HSV-1 inhibition category", "setting": "[1]; 50 μM", "value": "strong (3 to 6 log10 suppression, or 1,000- to 1,000,000-fold reduction)"}, {"measurement": "HSV-1 Log10 suppression 50 μM", "setting": "[1]; [8]", "value": 3.85, "unit": "log10"}, {"measurement": "ER", "setting": "[2]; extraction ratio, mouse liver microsomes", "value": 0.09}, {"measurement": "Non-P450 turn-over", "setting": "[2]; mouse liver microsomes", "value": "No"}, {"measurement": "half-life at 1 μM", "setting": "[2]; mouse liver microsomes, 1 μM compound, read-out: t ½", "value": "> 2", "unit": "h"}, {"measurement": "CLint scaled at 1 μM", "setting": "[2]; 1 μM compound, read-out: CL ‘hep", "value": 8, "unit": "mL/min/kg"}, {"measurement": "CLint scaled at 1 μM", "setting": "[2]; 1 μM compound, read-out: CL’int", "value": 9, "unit": "mL/min/kg"}, {"measurement": "inhibition of TK-mutant HSV-2", "setting": "[3]", "value": "efficiently inhibited"}, {"measurement": "HSV-2 inhibition category", "setting": "[4]; 1 μM", "value": "intermediate (1 to 3 log10 suppression, which equals 10- to 1,000-fold reduction)"}, {"measurement": "HSV-2 Log10 suppression 1 μM", "setting": "[4]; [6]", "value": 1.70, "unit": "log10"}, {"measurement": "HSV-2 replication inhibition, fold", "setting": "[4]; 5 μM", "value": "39,000 fold"}, {"measurement": "HSV-2 inhibition category", "setting": "[4]; 5 μM", "value": "strong (3 to 6 log10 suppression, or 1,000- to 1,000,000-fold reduction)"}, {"measurement": "suppression of replication of three primary clinical isolates of HSV-2", "setting": "[4]; 5 μM, Vero cells, moi 0.1, 24 h (FIG. 2)", "value": "> 4.7", "unit": "log10"}, {"measurement": "HSV-2 Log10 suppression 5 μM", "setting": "[4]; [7]", "value": "4.59 log10 and 4.53 log10"}, {"measurement": "inhibition of wild-type HSV-2", "setting": "[4]; 5 μM, laboratory strain 333, Vero cells, 24 h (FIG. 3)", "value": "efficiently inhibited"}, {"measurement": "HSV-2 inhibition category", "setting": "[4]; 50 μM", "value": "strong (3 to 6 log10 suppression, or 1,000- to 1,000,000-fold reduction)"}, {"measurement": "HSV-2 Log10 suppression 50 μM", "setting": "[4]; [8]", "value": 4.25, "unit": "log10"}, {"measurement": "Anti-human RNase H1", "setting": "[5]", "value": "did not inhibit"}]}
